Tests used:
[1] = system: primary heart muscle cells from newborn rats; assay: Inhibitory activity on heart muscle cell apoptosis (serum-free culture, viable cell number by WST-8); format: cell-based, Wister rats; conditions: Rattus norvegicus, 96 h; mean of three independent experiments; concentration required to increase the mean viable cell number by 50% as compared with that in the absence of test compounds; serum-free Medium 199, 4 days
Excerpt: Inhibitory Activity on Heart Muscle Cell Apoptosis
Newborn rats (within 1 day afterbirth) were obtained from pregnant Wister rats purchased from Charles River, anesthetized under ether, and sterilized with 70% ethanol, and then their hearts were excised with tweezers. The excised hearts were washed with a phosphate-buffered physiological saline (T900; Takara) and cut into pieces with surgical scissors. These tissue pieces were washed 4 to 5 times with a phosphate-buffered physiological saline to remove a majority of blood-derived non-heart muscle cells. To the tissue pieces derived from 10 newborns, 5 ml of enzyme solution (1.25 mg trypsin (Difco) and 0.25 mg collagenase (Sigma) per ml of phosphate-buffered saline (PBS)) was added and the mixture was stirred with a stirrer at 37° C. for 15 minutes. Another 2.5 ml enzyme solution was then added twice repeatedly at a 15-minutes interval. Then, Medium 199 (Gibco) containing 10% fetal calf serum (Biowiker) was added in a half volume of the enzyme solution to terminate the enzyme reaction. The cells were filtered through a Cell Strainer (Falcon) and then centrifuged at 400×g for 5 minutes, whereby the cells were collected.
The cells thus collected from 10 newborns were suspended in 50 ml Medium 199 containing 10% fetal calf serum, plated onto 100 mm Petri dishes (Iwaki) in a volume of 10 ml/dish and cultured for 1 hour in a CO2 incubator set at 5% CO2 and 37° C. The cells were then recovered, filtered through a Cell Strainer and centrifuged at 400×g for 5 minutes to collect the primary heart muscle cells derived from newborn rats.
Then, the heart muscle cells from 10 newborn rats were suspended in 2 ml low-isotonic solution (prepared by dissolving 8.29 g NH4Cl, 1.0 g KHCO3, 37 mg EDTA/2Na (ethylenediaminetetraacetic acid disodium) (Dojindo) in 1 L of water) and left for 3 minutes to disrupt erythrocytes. After 10 ml Medium 199 containing 10% fetal calf serum was added thereto, the primary heart muscle cells from newborn rats were collected by centrifugation at 400×g for 5 minutes. The cells were suspended in Medium 199 containing 10% fetal calf serum and then filtered through a cell strainer. After 0.3% trypan blue was added to, and mildly mixed with, an aliquot of the resulting cell suspension, the number of heart muscle cells was counted on an erythrocyte counting plate.
The primary heart muscle cells from newborn rats were suspended at a density of 3×10^6 cells/ml in Medium 199 containing 10% fetal calf serum, put onto a 96-well plate in a volume of 0.1 ml/well, and then cultured in a CO2 incubator set at 5% CO2 and 37° C. After the plate was stirred with a micromixer (Taiyo Kagaku Kogyo), the medium was exchanged 3 times with serum-free Medium 199, and then test compounds were added thereto. The cells were cultured for additional 4 days to induce apoptosis. Then, fetal calf serum was added thereto at a concentration of 10%, and the cells were further cultured for about 17 hours in a CO2 incubator set at 5% CO2 and 37° C. Finally, the number of viable cells was determined with Cell Counting Kit (Dojindo) using WST-8 (2-(2-methoxy-4-nitrophenyl)-3-(4-nitrophenyl)-5-(2,4-disulfophenyl)-2H-tetrazolium, monosodium salt) as the coloring substrate to determine the inhibition of the heart muscle cell apoptosis.
The above-mentioned experiment was triplicated in an independent manner.
The Mean minimal effective concentration (±SD) was shown for each test compound (Compounds 1 to 5 obtained in Reference Examples) in Table 1. In Table 1, the minimal effective concentration is defined as the concentration required to increase the mean viable cell number by 50% as compared with that in the absence of test compounds.

Compound	melting point [°C]	minimal effective concentration [1] [µM]
O=C(O)CCc1cccc(-c2nc(=O)c3ccccc3s2)n1 [Example 79, 3-[6-(4-Oxo-4H-1,3-benzothiazin-2-yl)-2-pyridyl]propionic acid]	243.2 to 243.5	0.061
CCCNC(=O)c1ccc(-c2nc(=O)c3ccccc3s2)nc1 [Example 37, 6-(4-Oxo-4H-1,3-benzothiazin-2-yl)-N-propylnicotinamide]	268 to 268.6	0.037
CN(C(=O)c1ccccc1)c1cccc(-c2nc(=O)c3ccccc3s2)n1 [Example 113, N-Methyl-N-[6-(4-oxo-4H-1,3-benzothiazin-2-yl)-2-pyridyl]benzamide]	234 to 235.4	0.022
COCCNC(=O)c1cccc(-c2nc(=O)c3ccccc3s2)n1 [Example 83, N-(2-Methoxyethyl)-6-(4-oxo-4H-1,3-benzothiazin-2-yl)-2-pyridinecarboxamide]	175.5 to 176.7	0.027
Cc1ccc([S+]([O-])c2cccc(-c3nc(=O)c4ccccc4s3)n2)cc1 (stereo not shown) [Example 63, 2-{6-[(4-Methylphenyl)sulfinyl]-2-pyridyl}-4H-1,3-benzothiazine-4-one]	228 to 228.2	0.046
O=c1nc(-c2cnccn2)sc2ccccc12 [Example 7, 2-Pyrazinyl-4H-1,3-benzothiazine-4-one]	240.7 to 241.7	0.021
O=c1nc(-c2ccc(CO)cn2)sc2ccccc12 [Example 48, 2-[5-(hydroxymethyl)-2-pyridyl]-4H-1,3-benzothiazine-4-one]	246.9 to 247.9	0.043
O=C(O)CCOCCCc1cccc(-c2nc(=O)c3ccccc3s2)n1 [Example 67, 3-{3-[6-(4-Oxo-4H-1,3-benzothiazin-2-yl)-2-pyridyl]propoxy}propionic acid]	141 to 142	0.031
CCCCN(C)C(=O)c1cccc(-c2nc(=O)c3ccccc3s2)n1 [Example 103, N-Butyl-N-methyl-6-(4-oxo-4H-1,3-benzothiazin-2-yl)-2-pyridinecarboxamide]	80 to 81.6	0.042
CN(C(=O)c1ccco1)c1cccc(-c2nc(=O)c3ccccc3s2)n1 [Example 112, N-Methyl-N-[6-(4-oxo-4H-1,3-benzothiazin-2-yl)-2-pyridyl]-2-furamide]	186.2 to 187.2	0.051
O=c1nc(-c2ccccn2)sc2cc(Cl)ccc12 [Example 10, 7-Chloro-2-(2-pyridyl)-4H-1,3-benzothiazine-4-one]	245.3 to 245.6	0.023
CCCNC(=O)c1cccc(-c2nc(=O)c3ccccc3s2)n1 [Example 50, 6-(4-Oxo-4H-1,3-benzothiazin-2-yl)-N-propyl-2-pyridinecarboxamide]	179.7 to 181.4	0.02
CC(C)Sc1cccc(-c2nc(=O)c3ccccc3s2)n1 [Example 127, 2-[6-(Isopropylthio)-2-pyridyl]-4H-1,3-benzothiazine-4-one]	185.4 to 185.8	0.04
O=C(O)CCOCCCc1ccc(-c2nc(=O)c3ccccc3s2)nc1 [Example 99, 3-{3-[6-(4-Oxo-4H-1,3-benzothiazin-2-yl)-3-pyridyl]propoxy}propionic acid]	145.2 to 146.6	0.043
CCOc1cccc(-c2nc(=O)c3ccccc3s2)n1 [Example 134, 2-(6-Ethoxy-2-pyridyl)-4H-1,3-benzothiazine-4-one]	179.5 to 180	0.095
O=c1nc(-c2ccc(C(F)(F)F)cn2)sc2ccccc12 [Example 49, 2-[5-(trifluoromethyl)-2-pyridyl]-4H-1,3-benzothiazine-4-one]	207.2 to 207.4	0.043
CC(C)(C)OC(=O)c1cccc(-c2nc(=O)c3ccccc3s2)n1 [Example 80, tert-Butyl 6-(4-oxo-4H-1,3-benzothiazin-2-yl)-2-pyridinecarboxylate]	185 to 185.5	0.035
CCCS(=O)(=O)c1cccc(-c2nc(=O)c3ccccc3s2)n1 [Example 61, 2-(6-Propylsulfonyl-2-pyridyl)-4H-1,3-benzothiazine-4-one]	173.8 to 174.5	0.01
O=c1nc(-c2ccccn2)sc2cc(C(F)(F)F)ccc12 [Example 85, 2-(2-Pyridyl)-7-trifluoromethyl-4H-1,3-benzothiazine-4-one]	175.8 to 177	0.04

Continued, in another order:

melting point [°C]	Compound	minimal effective concentration [1] [µM]
148.8 to 150.5	COc1cc(-c2nc(=O)c3ccccc3s2)ccn1 [Example 70, 2-(2-Methoxy-4-pyridyl)-4H-1,3-benzothiazine-4-one]	0.017
157 to 158	O=c1nc(-c2ccnc(N3CCOCC3)c2)sc2ccccc12 [Example 73, 2-(2-Morpholinyl-4-pyridyl)-4H-1,3-benzothiazine-4-one]	0.024
200 to 202.2	COc1ccc2c(=O)nc(-c3ccccn3)sc2c1 [Example 54, 7-methoxy-2-(2-pyridyl)-4H-1,3-benzothiazine-4-one]	0.037
250 to 250.2	O=c1nc(-c2ccccn2)sc2cc(F)ccc12 [Example 19, 7-Fluoro-2-(2-pyridyl)-4H-1,3-benzothiazine-4-one]	0.025
177.8 to 178.4	O=c1nc(-c2ccnc(Cl)c2)sc2ccccc12 [Example 76, 2-(2-Chloro-4-pyridyl)-4H-1,3-benzothiazine-4-one]	0.036
190.8 to 192.4	CCCN(C(=O)c1cccc(-c2nc(=O)c3ccccc3s2)n1)C(=O)N(C)C [Example 52, N,N-Dimethyl-N′-[[6-(4-oxo-4H-1,3-benzothiazin-2-yl)-2-pyridyl]carbonyl]-N′-propylurea]	0.01
248.2 to 251.7	O=c1nc(-c2cc[n+]([O-])cc2)sc2ccccc12 [Example 55]	0.016
153.8 to 153.9	O=C(O)CCOCCCc1ccnc(-c2nc(=O)c3ccccc3s2)c1 [Example 102, 3-[3-[2-(4-Oxo-4H-1,3-benzothiazin-2-yl)-4-pyridyl]propoxy]propanoic acid]	0.036
222.2 to 224	CN(C)C(=O)N(Cc1ccccc1)C(=O)c1cccc(-c2nc(=O)c3ccccc3s2)n1 [Example 53, N-Benzyl-N′,N′-dimethyl-N-[[6-(4-oxo-4H-1,3-benzothiazin-2-yl)-2-pyridyl]carbonyl]-urea]	0.032
260.2 to 260.5	O=C(O)c1cccc(-c2nc(=O)c3ccccc3s2)n1 [Example 81, 6-(4-Oxo-4H-1,3-benzothiazin-2-yl)-2-pyridinecarboxylic acid]	0.012
